Where two headings read alike, the source gives them in different places.
Tests used:
Assay in all cases: Antibacterial and antifungal activity, paper disc method
Assay type in all cases: cell-based
[1] = tested on: Bacillus subtilis IFO-13719; conditions: Bacillus subtilis
Protocol: (§1) Antibacterial and antifungal activity tests for various bacteria and fungi were conducted. The tests were carried out by the conventional paper disc method. That is, a paper disc (d=8 mm) was dipped in aqueous or methanol solution of the compound of the present invention (concentration : 1,000 µg/ml), then dried and used.
(§2) As bacteria to be tested, • ① Staphylococcus aureus IFO-12732 [hereinafter abbreviated to Sta.] • ② Bacillus subtilis IFO-13719 [Bac.] • ③ Escherichia coli IFO-3301 [Esc.] were used. As yeast to be tested, • ④ Saccharomyces cerevisiae IFO-0210 [Sac.] • ⑤ Candida albicans IFO-0583 [Can.] were used. As fungi to be tested, • ⑥ Aspergillus niger IFO-4407 [Asp.] • ⑦ Penicillium citrinum IFO-7784 [Pen.] • ⑧ Tyromyces palustris IFO-30339 [Tyr.] • ⑨ Coriolus versicolor IFO-30340 [Cor.] were used. Among the above fungi, Tyr. and Cor. are wood rot fungi.
(§3) As the test media, agar media shown below were used. That is, TSA (Trypticase Soy Agar) medium was used for Sta., Bac. and Esc.; YNB (Yeast Nitrogen Base) agar medium was used for Sac. and Can.; SDA (Sabouraud Dextrose Agar) medium was used for Asp. and Pen.; and PDA (Potato Dextrose Agar) medium was used for Try. and Cor.
(§4) The determination of antibacterial and antifungal effectiveness was carried out by measuring the diameter of the growth inhibition circle generated on the circumference of the paper disc. The indication of effectiveness is given as follows: -: no growth inhibition circle was observed. +: diameter of the growth inhibition circle was 9 - 20 mm ++: diameter of the growth inhibition circle was 21 - 40 mm +++: diameter of the growth inhibition circle was 41 mm or more

[2] = tested on: Escherichia coli IFO-3301; conditions: for zone of inhibition at 1000 µg/mL: Escherichia coli
Protocol: as §1, §2, §3, §4

[3] = tested on: Saccharomyces cerevisiae IFO-0210
Protocol: as §1, §2, §3, §4

[4] = tested on: Aspergillus niger IFO-4407
Protocol: as §1, §2, §3, §4

[5] = tested on: Penicillium citrinum IFO-7784
Protocol: as §1, §2, §3, §4

[6] = tested on: Tyromyces palustris IFO-30339; conditions: read-out: diameter of the growth inhibition circle, Tyr.(IFO-30339)
Protocol: as §1, §2, §3, §4

[7] = tested on: Staphylococcus aureus IFO-12732
Protocol: as §1, §2, §3, §4

[8] = tested on: Coriolus versicolor IFO-30340; conditions: Trametes versicolor
Protocol: as §1, §2, §3, §4

[9] = tested on: Candida albicans IFO-0583
Protocol: as §1, §2, §3, §4

[10] = IFO13719, paper disc d=8 mm dipped in 1,000 µg/ml solution, TSA medium, read-out: diameter of the growth inhibition circle, Bac.(IFO-13719)
[11] = IFO3301, paper disc d=8 mm dipped in 1,000 µg/ml solution, TSA medium, read-out: diameter of the growth inhibition circle, Esc.(IFO-3301)
[12] = IFO0210, paper disc d=8 mm dipped in 1,000 µg/ml solution, YNB agar medium, read-out: diameter of the growth inhibition circle, Sac.(IFO-0210)
[13] = IFO4407, paper disc d=8 mm dipped in 1,000 µg/ml solution, SDA medium, read-out: diameter of the growth inhibition circle, Asp.(IFO-4407)
[14] = IFO7784, paper disc d=8 mm dipped in 1,000 µg/ml solution, SDA medium, read-out: diameter of the growth inhibition circle, Pen.(IFO-7784)
[15] = paper disc d=8 mm dipped in 1,000 µg/ml solution, PDA medium
[16] = IFO12732, paper disc d=8 mm dipped in 1,000 µg/ml solution, TSA medium, read-out: diameter of the growth inhibition circle, Sta.(IFO-12732)
[17] = IFO30340, paper disc d=8 mm dipped in 1,000 µg/ml solution, PDA medium, read-out: diameter of the growth inhibition circle, Cor.(IFO-30340)
[18] = IFO0583, paper disc d=8 mm dipped in 1,000 µg/ml solution, YNB agar medium, read-out: diameter of the growth inhibition circle, Can.(IFO-0583)
[19] = paper disc d=8 mm dipped in 1,000 µg/ml solution, TSA medium

Row | Structure (SMILES) | zone of inhibition at 1000 µg/mL [1, 10] | zone of inhibition at 1000 µg/mL [2, 11] | zone of inhibition at 1000 µg/mL [3, 12] | zone of inhibition at 1000 µg/mL [4, 13] | zone of inhibition at 1000 µg/mL [5, 14] | zone of inhibition at 1000 µg/mL [6, 15] | zone of inhibition at 1000 µg/mL [7, 16] | zone of inhibition at 1000 µg/mL [8, 17] | zone of inhibition at 1000 µg/mL [9, 18] | diameter of the growth inhibition circle, Esc.(IFO-3301) [2, 19] | zone of inhibition at 1000 µg/mL ([1]; IFO13719, read-out: diameter of the growth inhibition circle, Bac.(IFO-13719)) | zone of inhibition at 1000 µg/mL ([2]; IFO3301, read-out: diameter of the growth inhibition circle, Esc.(IFO-3301)) | zone of inhibition at 1000 µg/mL ([3]; IFO0210, read-out: diameter of the growth inhibition circle, Sac.(IFO-0210)) | zone of inhibition at 1000 µg/mL ([4]; IFO4407, read-out: diameter of the growth inhibition circle, Asp.(IFO-4407)) | zone of inhibition at 1000 µg/mL ([5]; IFO7784, read-out: diameter of the growth inhibition circle, Pen.(IFO-7784)) | zone of inhibition at 1000 µg/mL [6] | zone of inhibition at 1000 µg/mL ([7]; IFO12732, read-out: diameter of the growth inhibition circle, Sta.(IFO-12732)) | zone of inhibition at 1000 µg/mL ([8]; IFO30340, read-out: diameter of the growth inhibition circle, Cor.(IFO-30340)) | zone of inhibition at 1000 µg/mL ([9]; IFO0583, read-out: diameter of the growth inhibition circle, Can.(IFO-0583))
1 | O=C(C#CI)Nc1cccc(Cl)c1 [Example 3, N-(3-Chlorophenyl)-3-iodopropiolamide] | 21 to 40 mm | 9 to 20 mm | 21 to 40 mm | 21 to 40 mm | > 41 mm | > 41 mm | 21 to 40 mm | > 41 mm | 21 to 40 mm |  |  |  |  |  |  |  |  |  | 
2 | O=C(C#CI)NCCc1ccccc1 [Example 16, N-(2-Phenylethyl)-3-iodopropiolamide] | 21 to 40 mm | 9 to 20 mm | > 41 mm | 21 to 40 mm | > 41 mm | > 41 mm | 21 to 40 mm | > 41 mm | 21 to 40 mm |  |  |  |  |  |  |  |  |  | 
3 | O=C(C#CI)Nc1cccc(F)c1 [Example 17, N-(3-Fluorophenyl)-3-iodopropiolamide] | 21 to 40 mm | 9 to 20 mm | 21 to 40 mm | 21 to 40 mm | > 41 mm | > 41 mm | 21 to 40 mm | > 41 mm | 21 to 40 mm |  |  |  |  |  |  |  |  |  | 
4 | CCCCN(CCCC)C(=O)C#CI [Example 18, N,N-Di(n-butyl)-3-iodopropiolamide] | 9 to 20 mm |  | 21 to 40 mm | 21 to 40 mm | > 41 mm | > 41 mm | 21 to 40 mm | > 41 mm | 21 to 40 mm | - |  |  |  |  |  |  |  |  | 
5 | O=C(C#CI)N1CCCCC1 [Example 19, 1-(3-Iodopropioloyl)piperidine] | 21 to 40 mm | 9 to 20 mm | 21 to 40 mm | 21 to 40 mm | > 41 mm | > 41 mm | 21 to 40 mm | > 41 mm | 21 to 40 mm |  |  |  |  |  |  |  |  |  | 
6 | CC1COCC(C)N1C(=O)C#CI (stereo not drawn) [Example 20, 4-(3-Iodopropioloyl)-3,5-dimethylmorpholine] | 9 to 20 mm |  | 21 to 40 mm | 21 to 40 mm | > 41 mm | > 41 mm | 21 to 40 mm | > 41 mm | 9 to 20 mm | - |  |  |  |  |  |  |  |  | 
7 | O=C(C#CI)N1CCN(c2ccccc2)CC1 [Example 21, 1-(3-Iodopropioloyl)-4-phenylpiperazine] | 9 to 20 mm |  | 21 to 40 mm | 21 to 40 mm | > 41 mm | > 41 mm | 21 to 40 mm | > 41 mm | 21 to 40 mm | - |  |  |  |  |  |  |  |  | 
8 | O=C(C#CI)NC1CCCCC1 [Example 22, N-Cyclohexyl-3-iodopropiolamide] | 9 to 20 mm | 9 to 20 mm | 21 to 40 mm | 21 to 40 mm | > 41 mm | > 41 mm | 21 to 40 mm | > 41 mm | 21 to 40 mm |  |  |  |  |  |  |  |  |  | 
9 | C=CCNC(=O)C#CI [Example 23, N-Allyl-3-iodopropiolamide] |  |  |  |  |  |  |  |  |  |  | 9 to 20 mm | 9 to 20 mm | 21 to 40 mm | 21 to 40 mm | > 41 mm | > 41 mm | 21 to 40 mm | > 41 mm | 21 to 40 mm
10 | O=C(C#CI)Nc1ccc(Cl)cc1 [Example 24, N-(4-Chlorophenyl)-3-iodopropiolamide] | 9 to 20 mm | 9 to 20 mm | 21 to 40 mm | 21 to 40 mm | > 41 mm | > 41 mm | 21 to 40 mm | > 41 mm | 21 to 40 mm |  |  |  |  |  |  |  |  |  | 
11 | O=C(C#CI)Nc1ccc(Cl)cc1Cl [Example 25, N-(2,4-Dichlorophenyl)-3-iodopropiolamide] | 9 to 20 mm | 9 to 20 mm | 21 to 40 mm | 21 to 40 mm | > 41 mm | > 41 mm | 21 to 40 mm | > 41 mm | 21 to 40 mm |  |  |  |  |  |  |  |  |  | 
12 | O=C(C#CI)Nc1cccc(C(F)(F)F)c1 [Example 26, N-(3-Trifluoromethylphenyl)-3-iodopropiolamide] | 9 to 20 mm | 9 to 20 mm | 21 to 40 mm | 21 to 40 mm | > 41 mm | 21 to 40 mm | 21 to 40 mm | > 41 mm | 21 to 40 mm |  |  |  |  |  |  |  |  |  | 
